Tested on: Plasmodium falciparum
Assay: GSK_TCMDC: Inhibition of Plasmodium falciparum 3D7 in whole erythrocytes, using parasite LDH activity as an index of growth.
Format: functional, organism-based
Settings: Plasmodium falciparum, 3D7

Compound | XC50 [nM]
O=C(Nc1cccc(Cl)c1Cl)Nc1ccnc2ccccc12 | 745
COc1ccc(-c2cccc(NC(=O)c3cccc(C#N)c3)c2)cc1CN(C)CCN(C)C | 314
O=C(/C=C/C=C/c1ccc(Cl)c(Cl)c1)NCCCCCN1CCCC2CCCCC21 (stereo unspecified) | 954
Nc1cccc(CNCc2ccc(-c3cccc(-c4nc5ccccc5[nH]4)c3)cc2)c1 | 710
Nc1cc(-c2ccc(-c3cccs3)s2)nc2ccccc12 | 598
CC1(C)CCCC(=Cc2ccc(Br)cc2)C1(O)Cn1ccnc1 (stereo unspecified) | 791
O=C(/C=C/c1ccc(Cl)c(Cl)c1)N1CCC(CCN2CCc3[nH]c4ccccc4c3C2)CC1 | 886
CCCCCC(C)C(C)c1cc(OC(N)=O)c2c(c1)OC(C)(C)C=C2c1ccncc1 (stereo unspecified) | 895
COc1cc2nc(N3CCC(CNC(=O)c4ccc(-c5ccc(C#N)cc5)cc4)CC3)nc(N)c2cc1OC | 796
Fc1ccc(NC(=S)NCCc2ccccc2)cc1 | 781
O=C(Nc1ccc(S(=O)(=O)N2CCCCCC2)cc1)c1cc(-c2ccccc2O)n[nH]1 | 717
COc1ccc2ccc(OC)c(CNCCCCCCNCc3c(OC)ccc4ccc(OC)cc34)c2c1 | 699
COc1cc(/C=N/Nc2nc(Nc3ccccc3)nc(Nc3ccccc3)n2)ccc1OCc1ccccc1[N+](=O)[O-] | 806
Oc1ccc(Br)cc1C(O)CNCc1ccccc1OCc1ccccc1 (stereo unspecified) | 167
N#Cc1cccc(/C=C/C(=O)NC2CCC(CCN3CCc4ccc(-c5cnccn5)cc4CC3)CC2)c1 (stereo unspecified) | 773
O=C(Nc1ccccc1O)c1ccc(Oc2cccc(C(=O)Nc3ccccc3O)c2)cc1 | 799
CCOC(=O)c1c(-c2ccccc2)c(C(=O)OCC)n2ccccc12 | 614
COc1ccc2nccc([C@@H](O)CN3CCC(NCc4cc5ccccc5nc4O)CC3)c2c1 | 182
FC(F)(F)c1ccc2[nH]c(-c3ccc(-c4cccc(CN5CCCCC5)c4)cc3)nc2c1 | 144
OC(Cn1ccnc1)(c1ccc(Cl)cc1Cl)C1CCCCC1 (stereo unspecified) | 984
O=C(NCCCCN1CCC(c2ccc3c(c2OCCN2CCCC2=O)CCCC3)CC1)c1ccc(-c2ccc(C(F)(F)F)cc2)cc1 | 1520

Compound | XC50 [nM]
CC(C)(C)c1ccc(NC(=O)c2cccc(CN3CCCN(Cc4ccsc4)CC3)c2)cc1 | 760
CC(=O)Nc1nc(C(=O)Nc2ccc(-c3cccc(-c4nc5cc(F)ccc5[nH]4)c3)cc2)cs1 | 292
CCCCCCCn1c(=N)n(CC(O)c2ccc(Cl)c(Cl)c2)c2ccccc21 (stereo unspecified) | 782
COc1cc(OC)c(NC(=O)C2c3ccccc3C(=O)N(C)C2c2cccs2)cc1Cl (stereo unspecified) | 764
CC(C)CCN1CCCN(Cc2ccc(C(=O)Nc3ccc(Cl)cc3)cc2)CC1 | 796
Oc1ccc(CNCCCCCCNCCc2ccc(Cl)cc2)cc1O | 989
O=C(C=Cc1ccc(Cl)c(Cl)c1)NCCCCCN1CCC(CCCNS(=O)(=O)c2ccc(Br)cc2)CC1 | 1130
CCCCCCCCNCC(O)c1ccc(Cl)c(Cl)c1 (stereo unspecified) | 819
COc1cccc([C@@H](CC(=O)Nc2cc(C(F)(F)F)ccc2OC)Nc2ccc(C#N)c3ccccc23)c1 | 993
Nc1ccnc(N2CCC(CCOc3ccnc4cc(Cl)ccc34)CC2)c1 | 1160
c1cncc(CCNCc2cccc(-c3ccc(-c4nc5ccccc5[nH]4)s3)c2)c1 | 202
O=C(/C=C/c1ccc(Cl)c(Cl)c1)NCC1CCCC(CN2CCC(c3c[nH]c4ccccc34)CC2)C1 (stereo unspecified) | 726
O=C(Nc1cccnc1)c1cc(-c2cc(Cl)ccc2O)n[nH]1 | 719
COCC(C)n1c(SCC(=O)Nc2cc(C(F)(F)F)ccc2Cl)nc2ccccc2c1=O (stereo unspecified) | 130
NC1=NC2(CCCCC2)N(OCCCCCCCCNc2nc(N)nc(N)n2)C(N)=N1 | 59.8
CCNc1cc(C)nc(Nc2ccc(NS(=O)(=O)c3cc(OC)ccc3OC)cc2)n1 | 853
COc1ccc(NC(=O)Nc2nc(-c3ccc(Cl)c(C)c3)cs2)cc1N1CCN(C)CC1 | 266
CCN1C(=O)C(=NN=C(S)N2CCCC2)c2ccccc21 | 1000
CCCCNc1c(C(=O)OCC)c(C)nc2c1[nH]c1ccccc12 | 680
CCC(C)CN1CCCN(c2ccc(NC(=O)c3cccs3)cc2)CC1 (stereo unspecified) | 802
